The text below walks through data of US7345088B2, “Pharmaceutical composition for use for the treatment of malignancies comprising in combination a bisphosphonates, a cox-2 inhibitor and a taxol” (Penn State Research Foundation, priority 2001, dated 2008).

What all share (assay type): cell-based
Experiment [1] relates to control vector transfected human breast cancer cell line (MCF/neo). Nature of the experiment: MTT tetrazolium dye assay, cell number after 3-day incubation, MCF/neo. Conditions: MCF/neo cells. The method, then:
(§1) Methods: The effect of combining the COX-2 inhibitor (SC 236) and zoledronic acid compared to either agent alone was tested in a HER-2/neu transfected human breast cancer cell line (MCF/18) and the control vector transfected line (MCF/neo). Cell number was determined after a 3-day incubation using the MTT tetrazolium dye assay.
(§2) Methods: The effect of combining the COX-2 inhibitor (SC236) with zoledronic acid and/or taxotere was tested in a HER-2/neu transfected human breast cancer cell line (MCF/18) and the control vector transfected line (MCF/neo). Cell number was determined after a 3-day incubation using the MTT tetrazolium dye assay.
Background: Formazan colour is commonly taken as a measure of viable cells.

Experiment [2] concerns DU-145 human prostate carcinoma cell line. Nature of the experiment: MTT tetrazolium dye assay, cell number after 3 day treatment, DU-145. To be noted: DU-145 cells. On the procedure: Methods: The effect of combining the COX-2 inhibitor (SC236) and zoledronic acid compared to either agent alone was tested in the DU-145 human prostate carcinoma cell line. Cell number was determined after a 3 day treatment using the MTT tetrazolium dye assay.

Experiment [3] has as its system HER-2/neu transfected human breast cancer cell line (MCF/18). The experiment in a line: MTT tetrazolium dye assay, cell number after 3-day incubation, MCF/18. Conditions: MCF/18 cells. On the procedure: as §1, §2
[4] abbreviates: single agent 1-10 μM, 3-day incubation (Example 19).
[5] abbreviates: single agent, concentration not given, 3-day incubation (Example 20).

As for `NS(=O)(=O)c1ccc(-n2nc(C(F)(F)F)cc2-c2ccc(Cl)cc2)cc1` [SC236], the growth inhibition in experiment [1] (setting [4]) is given as 18-53%; in experiment [2] (5 μM) it was 40%; in experiment [2] (1-25 μM), 0-77%; in experiment [3] (setting [4]), 15-41%.

Take `O=P(O)(O)C(O)(Cn1ccnc1)P(=O)(O)O` [zoledronic acid, 2-(imidazol-1yl)-1-hydroxyethane-1,1-diphosphonic acid]: the growth inhibition in experiment [1] (setting [4]) is listed as 8-67%; in experiment [1] (setting [5]), 18%-67%; in experiment [2] (1-10 μM) it was 8-70%; in experiment [3] (setting [4]) it was 9-53%; in experiment [3] (setting [5]), 9%-53%. Further, the inhibition (commonly the change of the read-out against control, counted positive when it falls) at 3 µM in experiment [2] (Homo sapiens, 72 h, 3 μM, read-out: growth inhibition) is 23%.
